In ChEMBL document CHEMBL3596090, “Discovery of novel pyrazole-containing benzamides as potent RORγ inverse agonists” (Bioorg Med Chem Lett, 2015):
≈ marks a conversion by molar mass, not a printed value.

What was measured:
[1] = Percentage unbound in human plasma; format: ADME, cell-free
[2] = biological target: T1, Nuclear receptor ROR-gamma (Homo sapiens, UniProt P51449); test: Binding affinity to GST-tagged RORgamma LBD (unknown origin) assessed as inhibition of interaction with co-activatior peptide TRAP220 preincubated for 1 hr followed by TRAP220 addition by FRET analysis
T1 sequence (P51449 whole entry): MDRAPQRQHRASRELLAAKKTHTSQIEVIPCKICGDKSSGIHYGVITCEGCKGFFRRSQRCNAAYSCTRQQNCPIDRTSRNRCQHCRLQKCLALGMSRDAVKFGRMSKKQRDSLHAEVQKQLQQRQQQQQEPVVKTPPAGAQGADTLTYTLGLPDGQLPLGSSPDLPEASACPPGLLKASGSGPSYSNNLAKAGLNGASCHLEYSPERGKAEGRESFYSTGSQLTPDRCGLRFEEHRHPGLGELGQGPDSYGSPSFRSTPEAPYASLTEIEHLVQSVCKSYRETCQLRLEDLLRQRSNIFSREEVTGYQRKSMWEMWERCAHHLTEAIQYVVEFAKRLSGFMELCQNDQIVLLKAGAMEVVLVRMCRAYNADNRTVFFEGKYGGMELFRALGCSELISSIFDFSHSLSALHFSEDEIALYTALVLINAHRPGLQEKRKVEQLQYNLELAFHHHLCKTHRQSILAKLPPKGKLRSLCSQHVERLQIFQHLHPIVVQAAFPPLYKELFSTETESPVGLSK

[3] = biological target: T1, Nuclear receptor ROR-gamma; test: Inverse agonist activity at RORgamma (unknown origin) transfected in HEK293T cells after 16 to 20 hrs by GAL4 luciferase reporter gene assay; format: functional, cell-based, HEK-293T
[4] = Percentage unbound in rat plasma; format: ADME, cell-free
[5] = biological target: T2, Nuclear receptor ROR-gamma (Mus musculus, UniProt P51450); test: Inverse agonist activity at RORgamma in C57BL/6 mouse splenocytes assessed as reduction of IL-17 production after 2 days by ELISA; format: cell-based
T2 sequence (P51450 whole entry): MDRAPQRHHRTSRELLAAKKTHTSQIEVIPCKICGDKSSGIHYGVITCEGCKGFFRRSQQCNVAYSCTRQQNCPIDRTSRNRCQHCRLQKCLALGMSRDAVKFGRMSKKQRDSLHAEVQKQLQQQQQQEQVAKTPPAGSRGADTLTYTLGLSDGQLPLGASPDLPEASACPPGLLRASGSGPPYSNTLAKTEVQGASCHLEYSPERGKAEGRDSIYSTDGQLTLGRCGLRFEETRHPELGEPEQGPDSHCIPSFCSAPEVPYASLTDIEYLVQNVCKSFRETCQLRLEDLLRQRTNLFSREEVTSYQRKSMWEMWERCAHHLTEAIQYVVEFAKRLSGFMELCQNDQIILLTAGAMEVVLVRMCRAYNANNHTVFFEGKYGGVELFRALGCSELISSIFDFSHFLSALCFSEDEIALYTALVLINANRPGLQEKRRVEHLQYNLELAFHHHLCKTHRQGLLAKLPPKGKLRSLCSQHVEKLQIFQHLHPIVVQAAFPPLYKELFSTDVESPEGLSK

[6] = Kinetic aqueous solubility of the compound; format: physicochemical; conditions: buffer; read-out: Kinetic_solubility
[7] = AUC in po dosed rat; format: ADME, organism-based; conditions: in vivo
[8] = biological target: T3, Nuclear receptor ROR-beta (Homo sapiens, UniProt Q92753); test: Inverse agonist activity at RORbeta (unknown origin)
T3 sequence (Q92753 whole entry): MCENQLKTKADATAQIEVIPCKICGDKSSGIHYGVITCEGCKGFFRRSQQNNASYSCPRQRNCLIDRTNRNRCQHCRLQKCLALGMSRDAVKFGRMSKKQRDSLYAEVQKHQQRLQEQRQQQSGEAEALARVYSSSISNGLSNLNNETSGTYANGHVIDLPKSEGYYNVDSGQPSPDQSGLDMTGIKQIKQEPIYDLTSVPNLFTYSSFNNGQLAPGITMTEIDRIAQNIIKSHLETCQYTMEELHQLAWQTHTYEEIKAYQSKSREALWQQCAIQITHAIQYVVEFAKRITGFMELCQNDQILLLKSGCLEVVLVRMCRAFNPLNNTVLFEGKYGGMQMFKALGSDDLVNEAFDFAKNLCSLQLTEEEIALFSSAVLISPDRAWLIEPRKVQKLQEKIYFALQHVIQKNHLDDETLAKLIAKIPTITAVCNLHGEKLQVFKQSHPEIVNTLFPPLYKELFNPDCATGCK

[9] = biological target: T4, Nuclear receptor ROR-alpha (Homo sapiens, UniProt P35398); test: Inverse agonist activity at RORalpha (unknown origin)
T4 sequence (P35398 whole entry): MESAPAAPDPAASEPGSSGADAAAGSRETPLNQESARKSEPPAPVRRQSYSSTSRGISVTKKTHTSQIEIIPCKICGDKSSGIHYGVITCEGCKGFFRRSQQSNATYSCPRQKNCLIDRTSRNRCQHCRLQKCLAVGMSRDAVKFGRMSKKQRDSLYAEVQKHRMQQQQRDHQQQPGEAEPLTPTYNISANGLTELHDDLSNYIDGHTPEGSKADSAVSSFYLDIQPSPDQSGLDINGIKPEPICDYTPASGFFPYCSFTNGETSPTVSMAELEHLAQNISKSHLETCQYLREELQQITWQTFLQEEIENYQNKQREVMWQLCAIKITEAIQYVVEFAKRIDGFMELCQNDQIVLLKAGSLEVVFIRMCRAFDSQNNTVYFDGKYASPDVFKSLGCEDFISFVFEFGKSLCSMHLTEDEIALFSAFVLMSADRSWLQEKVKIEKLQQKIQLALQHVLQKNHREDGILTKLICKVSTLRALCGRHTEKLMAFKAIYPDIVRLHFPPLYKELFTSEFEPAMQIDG

[10] = AUC in mouse at 25 mg/kg, po; format: ADME, organism-based; conditions: in vivo
[11] = AUC (0 to 7 hrs) in rat at 10 mg/kg, po; format: ADME, organism-based; design: time < 7 hr, dose 10 mg/kg, route oral; conditions: in vivo
[12] = biological target: T5, Nuclear receptor subfamily 1 group I member 2 (Homo sapiens, UniProt O75469); test: Activation of PXR (unknown origin)
T5 sequence (O75469 whole entry): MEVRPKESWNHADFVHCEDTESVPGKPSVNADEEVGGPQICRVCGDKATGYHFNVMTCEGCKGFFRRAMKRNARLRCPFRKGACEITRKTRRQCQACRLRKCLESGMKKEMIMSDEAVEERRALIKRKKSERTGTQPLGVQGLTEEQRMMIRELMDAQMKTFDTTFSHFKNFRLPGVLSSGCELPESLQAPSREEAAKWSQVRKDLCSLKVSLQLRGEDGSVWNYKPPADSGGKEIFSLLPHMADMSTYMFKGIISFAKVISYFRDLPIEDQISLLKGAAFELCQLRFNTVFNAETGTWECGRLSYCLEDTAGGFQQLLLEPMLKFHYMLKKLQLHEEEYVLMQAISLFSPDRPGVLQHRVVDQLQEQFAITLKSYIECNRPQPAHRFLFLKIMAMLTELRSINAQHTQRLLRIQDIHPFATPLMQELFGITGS

Structure (SMILES)	fraction unbound [1]	IC50 [2] [nM]	EC50 [3] [nM]	fraction unbound [4]	EC50 [5] [nM]	solubility kinetic [6] [µg/mL]	AUC [7] [ng·h/mL]	EC50 [8] [nM]	EC50 [9] [nM]	AUC [10] [ng·h/mL]	AUC(0-t) at 7 h [11] [ng·h/mL]	EC50 [12] [nM]
[2H]C([2H])([2H])N(C(=O)c1c(F)cccc1Cl)c1ccc(-c2cc(C(N)=O)ccc2Cl)cc1OCC(F)(F)F	0.003	29	98	0.002	895	0.3 (≈ 0.579 µM)	3130	–	–	–	–	–
[2H]C([2H])([2H])N(C(=O)c1c(F)cccc1Cl)c1ccc(-c2cc(NC(C)=O)nn2C(C)C)cc1N1CC2CC2C1 (configuration not stated)	0.014	–	–	0.002	38	2.1 (≈ 4.09 µM)	–	1300	1600	2830	1040	9900
CC(=O)Nc1cc(-c2cnc(N(C)C(=O)c3c(F)cccc3Cl)c(N3CCCCC3)c2)n(C(C)C)n1	0.076	–	–	0.013	34	37.4 (≈ 72.9 µM)	–	2300	9300	2260	927	5400
CC(=O)Nc1nc(-c2cnc(N(C)C(=O)c3c(F)cccc3Cl)c(N3CCCCC3)c2)n(C(C)C)n1	–	> 5000	> 1000	–	–	–	–	–	–	–	–	–
